Experiments:
Settings in all cases: 10 μM, 48 hours
CCRF-CEM = experiment: NCI screen antiproliferative activity, sulforhodamine B, Leukemia panel; assay type: cell-based, human
Experimental: (§1) The antiproliferative activity of compounds were determined in the National Cancer Institute (NCI) screen (Drug. Dev. Res. 1995, 34, 91-109; J. Natl. Cancer Inst. 1990, 82, 1107-1112; Drug Dev. Res. 1995, 34, 91-109). For certain compounds, cells of approximately 60 different human cancer cell lines were incubated for 48 hours with five 10-fold dilutions of the tested compounds starting from 100 μM and then treated with sulforhodamine B dye. For other compounds, cells of approximately 60 different human cancer cell lines were incubated for 48 hours with a concentration of 10 μM test compound. The ratios of recorded optical densities relative to that of the control were plotted as a function of the common logarithm of the tested compound concentrations or growth percent (for single concentration tests). The interpolation between the points located above and below the 50% percentage growth provided 50% growth inhibition (GI50) values. Total growth inhibition (TGI) and 50% lethal concentrations (LC50) were also calculated using reported methods. A “-” means not tested and/or not-determined.

HL-60(TB) = experiment: as above; assay type: cell-based, human
Experimental: as §1

K-562 = experiment: as above; assay type: cell-based, human
MOLT-4 = experiment: as above; assay type: cell-based, human
RPMI-8226 = experiment: as above; assay type: cell-based, human
SR = experiment: as above; assay type: cell-based, human
COLO 205 = experiment: NCI screen antiproliferative activity, sulforhodamine B, Colon Cancer panel; assay type: cell-based, human
KM12 = experiment: as above; assay type: cell-based, human
SW-620 = experiment: as above; assay type: cell-based, human
LOX IMVI = experiment: NCI screen antiproliferative activity, sulforhodamine B, Melanoma panel; assay type: cell-based, human
MALME-3M = experiment: as above; assay type: cell-based, human
SK-MEL-5 = experiment: as above; assay type: cell-based, human
NCI/ADR-RES = experiment: NCI screen antiproliferative activity, sulforhodamine B, Ovarian Cancer panel; assay type: cell-based, human
Experimental: as §1

A498 = experiment: NCI screen antiproliferative activity, sulforhodamine B, Renal Cancer panel; assay type: cell-based, human
Experimental: as §1

HS 578T = experiment: NCI screen antiproliferative activity, sulforhodamine B, Breast Cancer panel; assay type: cell-based, human
MDA-MB-468 = experiment: as above; assay type: cell-based, human
Experimental: as §1

A549/ATCC = tested on: A549/ATCC
HOP-62 = tested on: HOP-62
HOP-92 = tested on: HOP-92
NCI-H226 = tested on: NCI-H226
NCI-H23 = tested on: NCI-H23
NCI-H322M = tested on: NCI-H322M
NCI-H460 = tested on: NCI-H460
NCI-H522 = tested on: NCI-H522
HCC-2998 = tested on: HCC-2998
HCT-116 = tested on: HCT-116
HCT-15 = tested on: HCT-15
HT29 = tested on: HT29
SF-268 = tested on: SF-268
SF-539 = tested on: SF-539
SNB-19 = tested on: SNB-19
SNB-75 = tested on: SNB-75
M14 = tested on: M14
SK-MEL-2 = tested on: SK-MEL-2
SK-MEL-28 = tested on: SK-MEL-28
UACC-62 = tested on: UACC-62
IGROV1 = tested on: IGROV1
OVCAR-3 = tested on: OVCAR-3
OVCAR-4 = tested on: OVCAR-4
OVCAR-5 = tested on: OVCAR-5
OVCAR-8 = tested on: OVCAR-8
SK-OV-3 = tested on: SK-OV-3
786-0 = tested on: 786-0
ACHN = tested on: ACHN
CAKI-1 = tested on: CAKI-1
RXF 393 = tested on: RXF 393
SN12C = tested on: SN12C
TK-10 = tested on: TK-10
UO-31 = tested on: UO-31
PC-3 = tested on: PC-3
DU-145 = tested on: DU-145
MCF7 = tested on: MCF7
MDA-MB-231/ATCC = tested on: MDA-MB-231/ATCC
MDA-MB-435 = tested on: MDA-MB-435
BT-549 = tested on: BT-549
T-47D = tested on: T-47D

In the case of `CCCCCCCCOC(=O)CC[C@@H](C)[C@H]1CC[C@H]2[C@@H]3[C@H](OC(=O)CCN)C[C@@H]4C[C@H](OC(=O)CCN)CC[C@]4(C)[C@H]3C[C@H](OC(=O)CCN)[C@]12C` [CSA-44], the “Growth Percent” value (CCRF-CEM) is reported as −37.46%, the “Growth Percent” value (HL-60(TB)) is reported as 43.69% and the “Growth Percent” value (K-562) is reported as −74.53%. For the same compound, the “Growth Percent” value (MOLT-4) was 26.15%, the “Growth Percent” value (RPMI-8226) was 77.75% and the “Growth Percent” value (SR) was −12.92%. For the same compound, the “Growth Percent” value (COLO 205) was 66.35%, the “Growth Percent” value (KM12) was 77.75% and the “Growth Percent” value (SW-620) was 20.01%. For the same compound, the “Growth Percent” value (LOX IMVI) was 63.17%, the “Growth Percent” value (MALME-3M) was 67.83% and the “Growth Percent” value (SK-MEL-5) was 96.98%. The “Growth Percent” value (NCI/ADR-RES) was 100.83%, the “Growth Percent” value (A498) was 130.78% and the “Growth Percent” value (HS 578T) was 79.51%. The “Growth Percent” value (MDA-MB-468) was 3.95%, the “Growth Percent” value (A549/ATCC) was 81.31% and the “Growth Percent” value (HOP-62) was 37.66%. For the same compound, the “Growth Percent” value (HOP-92) was 40.75%, the “Growth Percent” value (NCI-H226) was 89.76% and the “Growth Percent” value (NCI-H23) was 90.31%. For the same compound, the “Growth Percent” value (NCI-H322M) was 71.42%, the “Growth Percent” value (NCI-H460) was 73.70% and the “Growth Percent” value (NCI-H522) was 10.80%. For the same compound, the “Growth Percent” value (HCC-2998) was 84.20%, the “Growth Percent” value (HCT-116) was 49.30% and the “Growth Percent” value (HCT-15) was 101.79%. For the same compound, the “Growth Percent” value (HT29) was 39.62%, the “Growth Percent” value (SF-268) was 69.72% and the “Growth Percent” value (SF-539) was 56.26%. The “Growth Percent” value (SNB-19) was 115.74%, the “Growth Percent” value (SNB-75) was 63.88% and the “Growth Percent” value (M14) was 84.43%. The “Growth Percent” value (SK-MEL-2) was 126.21%, the “Growth Percent” value (SK-MEL-28) was 58.43% and the “Growth Percent” value (UACC-62) was 103.61%. For the same compound, the “Growth Percent” value (IGROV1) was 77.22%, the “Growth Percent” value (OVCAR-3) was 107.53% and the “Growth Percent” value (OVCAR-4) was 75.66%. The “Growth Percent” value (OVCAR-5) was 92.12%, the “Growth Percent” value (OVCAR-8) was 69.53% and the “Growth Percent” value (SK-OV-3) was 90.91%. The “Growth Percent” value (786-0) was 99.05%, the “Growth Percent” value (ACHN) was 96.19% and the “Growth Percent” value (CAKI-1) was 107.94%. The “Growth Percent” value (RXF 393) was 108.72%, the “Growth Percent” value (SN12C) was 77.59% and the “Growth Percent” value (TK-10) was 135.94%. The “Growth Percent” value (UO-31) was 104.69%, the “Growth Percent” value (PC-3) was 87.30% and the “Growth Percent” value (DU-145) was 74.35%. For the same compound, the “Growth Percent” value (MCF7) was 10.84%, the “Growth Percent” value (MDA-MB-231/ATCC) was 69.26% and the “Growth Percent” value (MDA-MB-435) was 74.13%. For the same compound, the “Growth Percent” value (BT-549) was 124.30% and the “Growth Percent” value (T-47D) was 88.83%.

Source: patent US9943529B2, “Methods for reducing cellular proliferation and treating certain diseases” (BRIGHAM YOUNG UNIVERSITY, priority 2013, dated 2018)
